As usually defined, the IC50 is the concentration that inhibits the measured activity by half.

Molecules are shown by their SMILES. Like-named read-outs stand apart in the source and are kept apart here.

In one experiment the target is KRAS G12D (Homo sapiens (Human), UniProt P01116, G12D). Description: KRAS G12D LoEnz Biochemical Assay, BODIPY-GDP Exchange TR-FRET (SOS1-mediated nucleotide exchange). The following applies: read-out: KRas (G12D) GDP HTRF IC50. On the technique in general: Time-resolved FRET reads energy transfer from a long-lived donor to a nearby acceptor.
Chain of KRAS G12D (P01116-2 other isoform, or with tags, fused parts or gaps G12D): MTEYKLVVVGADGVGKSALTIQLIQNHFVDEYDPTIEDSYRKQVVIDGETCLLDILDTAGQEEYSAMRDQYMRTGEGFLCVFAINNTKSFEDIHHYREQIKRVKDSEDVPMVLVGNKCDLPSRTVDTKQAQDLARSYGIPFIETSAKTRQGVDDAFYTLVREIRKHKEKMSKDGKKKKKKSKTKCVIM
The next experiment concerns the target KRAS WT (Homo sapiens (Human), UniProt P01116). The experiment is described as follows: KRAS WT Biochemical Assay, BODIPY-GDP Exchange TR-FRET (Example 501; 3 nM KRAS WT, 3 nM SOS1, 60-minute incubation). In short, it runs like this:
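SOS1-mediated exchange assay: 3 nM biotin-KRAS WT with terbium-streptavidin, started with 3 nM SOS1 and 300 nM BODIPY-GDP, HEPES pH 7.5 with MgCl2. TR-FRET (520/490 nm) read after 60 min; normalized to DMSO and full-inhibition control, IC50 from 4-parameter Hill fit.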

Chain of KRAS WT (P01116-2 other isoform, or with tags, fused parts or gaps): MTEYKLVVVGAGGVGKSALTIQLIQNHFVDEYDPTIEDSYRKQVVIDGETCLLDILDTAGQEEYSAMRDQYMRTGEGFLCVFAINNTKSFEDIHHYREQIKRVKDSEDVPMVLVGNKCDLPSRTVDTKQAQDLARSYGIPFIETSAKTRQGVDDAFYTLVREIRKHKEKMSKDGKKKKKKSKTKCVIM

In the case of `C#Cc1cccc2cc(O)cc(-c3nc4c5c(nc(OC[C@@]67CCCN6C[C@H](F)C7)nc5c3F)N3C[C@H]5CC[C@H](N5)[C@H]3[C@H](C(F)(F)F)O4)c12` [Compound 251, 5-Ethynyl-4-((5R,5aS,6S,9R)-1-fluoro-12-(((2R,7aS)-2-fluorotetrahydro-1H-pyrrolizin-7a(5H)-yl)methoxy)-5-(trifluoromethyl)-5a,6,7,8,9,10-hexahydro-5H-4-oxa-3,10a,11,13,14-pentaaza-6,9-methanonaphtho[1,8-ab]heptalene-2-yl)naphthalen-2-ol], the 50% inhibitory concentration (IC50) on KRAS G12D was found to be 0.16 nM; at KRAS WT (read-out: KRas HTRF IC50) it was 0.00105 µM.
For the molecule `Cc1nc(N)cc(-c2nc3c4c(nc(OC[C@@H]5CC[C@H]6COCCN65)nc4c2F)N2C[C@H]4CC[C@H](N4)[C@H]2[C@H](C(F)(F)F)O3)c1C(F)(F)F` [Compound 253, 4-((5R,5aS,6S,9R)-1-Fluoro-12-(((6S,8aS)-hexahydro-1H-pyrrolo[2,1-c][1,4]oxazin-6-yl)methoxy)-5-(trifluoromethyl)-5a,6,7,8,9,10-hexahydro-5H-4-oxa-3,10a,11,13,14-pentaaza-6,9-methanonaphtho[1,8-ab]heptalene-2-yl)-6-methyl-5-(trifluoromethyl)pyridin-2-amine], the results for the half-inhibitory concentration (IC50) on KRAS G12D and at KRAS WT (read-out: KRas HTRF IC50) were 1.03 nM and 0.0371 µM, respectively.
Taken in the same sequence, the figures for `Cc1nc(N)cc(-c2nc3c4c(nc(OC[C@@]56CCCN5CC5(CC5(F)F)C6)nc4c2F)N2C[C@H]4CC[C@H](N4)[C@H]2[C@H](C(F)(F)F)O3)c1C(F)(F)F` (stereo partly drawn) [Compound 254, 4-((5R,5aS,6S,9R)-12-(((7a′S)-2,2-Difluorodihydro-1′H,3′H-spiro[cyclopropane-1,2′-pyrrolizin]-7a′(5′H)-yl)methoxy)-1-fluoro-5-(trifluoromethyl)-5a,6,7,8,9,10-hexahydro-5H-4-oxa-3,10a,11,13,14-pentaaza[6,9]methanonaphtho[1,8-ab]heptalene-2-yl)-6-methyl-5-(trifluoromethyl)pyridin-2-amine] were 0.49 nM and 0.00125 µM.
The matching figures for `Cc1nc(N)c(F)c(-c2nc3c4c(nc(OC[C@@]56CCCN5C[C@H](F)C6)nc4c2F)N2C[C@H]4CC[C@H](N4)[C@H]2[C@H](C(F)(F)F)O3)c1C(F)(F)F` [Compound 256, 3-Fluoro-4-((5R,5aS,6S,9R)-1-fluoro-12-(((2R,7aS)-2-fluorotetrahydro-1H-pyrrolizin-7a(5H)-yl)methoxy)-5-(trifluoromethyl)-5a,6,7,8,9,10-hexahydro-5H-4-oxa-3,10a,11,13,14-pentaaza-6,9-methanonaphtho[1,8-ab]heptalen-2-yl)-6-methyl-5-(trifluoromethyl)pyridin-2-amine]: 0.82 nM and 0.017 µM.
Take `Cc1nc(N)c(F)c(-c2nc3c4c(nc(OC[C@@]56CCCN5CC5(CC5(F)F)C6)nc4c2F)N2C[C@H]4CC[C@H](N4)[C@H]2[C@H](C(F)(F)F)O3)c1C(F)(F)F` (stereo partly drawn) [Compound 257, 4-((5R,5aS,6S,9R)-12-(((7a'S)-2,2-Difluorodihydro-1′H,3′H-spiro[cyclopropane-1,2′-pyrrolizin]-7a′(5′H)-yl)methoxy)-1-fluoro-5-(trifluoromethyl)-5a,6,7,8,9,10-hexahydro-5H-4-oxa-3,10a,11,13,14-pentaaza[6,9]methanonaphtho[1,8-ab]heptalen-2-yl)-3-fluoro-6-methyl-5-(trifluoromethyl)pyridin-2-amine]: the IC50 at KRAS G12D was determined as 0.89 nM; at KRAS WT (read-out: KRas HTRF IC50) it was 0.00841 µM.
On to `Cc1c(F)c(N)cc(-c2nc3c4c(nc(OCC5(CN6CC6(C)C)CC5)nc4c2F)N2C[C@H]4CC[C@H](N4)[C@H]2[C@H](C)O3)c1C(F)(F)F` (stereo partly drawn) [Compound 259, 5-((5S,5aS,6S,9R)-12-((1-((2,2-Dimethylaziridin-1-yl)methyl)cyclopropyl)methoxy)-1-fluoro-5-methyl-5a,6,7,8,9,10-hexahydro-5H-4-oxa-3,10a,11,13,14-pentaaza-6,9-methanonaphtho[1,8-ab]heptalen-2-yl)-2-fluoro-3-methyl-4-(trifluoromethyl)aniline], for which the results for the IC50 at KRAS G12D and on KRAS WT (KRas HTRF IC50 [uM]) were 0.16 nM and 0.00971 µM, respectively.
For `C[C@@H]1Oc2nc(-c3cc(N)nc(C(F)F)c3C(F)(F)F)c(F)c3nc(OC[C@@]45CCCN4C[C@H](F)C5)nc(c23)N2C[C@H]3CC[C@H](N3)[C@@H]12` [Compound 260, 6-(Difluoromethyl)-4-((5S,5aS,6S,9R)-1-fluoro-12-(((2R,7aS)-2-fluorotetrahydro-1H-pyrrolizin-7a(5H)-yl)methoxy)-5-methyl-5a,6,7,8,9,10-hexahydro-5H-4-oxa-3,10a,11,13,14-pentaaza-6,9-methanonaphtho[1,8-ab]heptalen-2-yl)-5-(trifluoromethyl)pyridin-2-amine], the IC50 on KRAS G12D was 0.28 nM; on KRAS WT (read-out: KRas HTRF IC50), 0.0262 µM.
On to `Cc1nc(N)cc(-c2nc3c4c(nc(OCC56C[C@@H](F)CN5C[C@H](F)C6)nc4c2F)N2C[C@H]4CC[C@H](N4)[C@H]2[C@H](C(F)(F)F)O3)c1C(F)(F)F` [Compound 261, 4-((5R,5aS,6S,9R)-12-(((2R,6R)-2,6-Difluorotetrahydro-1H-pyrrolizin-7a(5H)-yl)methoxy)-1-fluoro-5-(trifluoromethyl)-5a,6,7,8,9,10-hexahydro-5H-4-oxa-3,10a,11,13,14-pentaaza-6,9-methanonaphtho[1,8-ab]heptalen-2-yl)-6-methyl-5-(trifluoromethyl)pyridin-2-amine], for which the IC50 at KRAS G12D turned out to be 2.76 nM; at KRAS WT (read-out: KRas HTRF IC50), 0.0971 µM.
With `Cc1nc(N)cc(-c2nc3c4c(nc(OCC5(CN6CC7CC(C6)O7)CC5)nc4c2F)N2C[C@H]4CC[C@H](N4)[C@H]2[C@H](C)O3)c1C(F)(F)F` [Compound 265, 4-((5S,5aS,6S,9R)-12-((1-((6-oxa-3-azabicyclo[3.1.1]heptan-3-yl)methyl)cyclopropyl)methoxy)-1-fluoro-5-methyl-5a,6,7,8,9,10-hexahydro-5H-4-oxa-3,10a,11,13,14-pentaaza-6,9-methanonaphtho[1,8-ab]heptalene-2-yl)-6-methyl-5-(trifluoromethyl)pyridin-2-amine], the values for the concentration for half-maximal inhibition (IC50) at KRAS G12D and on KRAS WT (read-out: KRas HTRF IC50) were 0.28 nM and 0.0141 µM, respectively.
The matching figures for `Cc1nc(N)cc(-c2nc3c4c(nc(OCC5(CN6CCOC(C(F)(F)F)C6)CC5)nc4c2F)N2C[C@H]4CC[C@H](N4)[C@H]2[C@H](C)O3)c1C(F)(F)F` (stereo partly drawn) [Compound 267, 4-((5S,5aS,6S,9R)-1-fluoro-5-methyl-12-((1-((2-(trifluoromethyl)morpholino)methyl)cyclopropyl)methoxy)-5a,6,7,8,9,10-hexahydro-5H-4-oxa-3,10a,11,13,14-pentaaza-6,9-methanonaphtho[1,8-ab]heptalene-2-yl)-6-methyl-5-(trifluoromethyl)pyridin-2-amine]: 2.98 nM and 0.609 µM.
The matching figures for `Cc1nc(N)cc(-c2nc3c4c(nc(OCC5(CN6CC[C@H]7OCC[C@H]76)CC5)nc4c2F)N2C[C@H]4CC[C@H](N4)[C@H]2[C@H](C)O3)c1C(F)(F)F` [Compound 268, 4-((5S,5aS,6S,9R)-1-fluoro-12-((1-(((3aR,6aR)-hexahydro-4H-furo[3,2-b]pyrrol-4-yl)methyl)cyclopropyl)methoxy)-5-methyl-5a,6,7,8,9,10-hexahydro-5H-4-oxa-3,10a,11,13,14-pentaaza-6,9-methanonaphtho[1,8-ab]heptalene-2-yl)-6-methyl-5-(trifluoromethyl)pyridin-2-amine]: 0.29 nM and 0.0119 µM.

For the origin of these results see patent US20240025919A1, “AZA-TETRACYCLIC OXAZEPINE COMPOUNDS AND USES THEREOF” (Genentech, Inc., priority 2022, published 2024).
